# Reference: article PMC8399014, “Design of Multifaceted Antioxidants: Shifting towards Anti-Inflammatory and Antihyperlipidemic Activity” (Molecules, 2021)
# Read-outs that look alike come from different tables or passages of the source. Marks after values point to notes of the source that are not given here.
# How the values were obtained:
# [1] = biological target: T1, soybean lipoxygenase (LOX-3) (Glycine max, UniProt P09186); experiment: Soybean lipoxygenase (LOX-3) inhibition; type: biochemical; settings: after 5 min of incubation; sodium linoleate 100 μM, pH 9.0; read-out: IC50 Value on LOX-3
# T1 sequence (P09186 1-857): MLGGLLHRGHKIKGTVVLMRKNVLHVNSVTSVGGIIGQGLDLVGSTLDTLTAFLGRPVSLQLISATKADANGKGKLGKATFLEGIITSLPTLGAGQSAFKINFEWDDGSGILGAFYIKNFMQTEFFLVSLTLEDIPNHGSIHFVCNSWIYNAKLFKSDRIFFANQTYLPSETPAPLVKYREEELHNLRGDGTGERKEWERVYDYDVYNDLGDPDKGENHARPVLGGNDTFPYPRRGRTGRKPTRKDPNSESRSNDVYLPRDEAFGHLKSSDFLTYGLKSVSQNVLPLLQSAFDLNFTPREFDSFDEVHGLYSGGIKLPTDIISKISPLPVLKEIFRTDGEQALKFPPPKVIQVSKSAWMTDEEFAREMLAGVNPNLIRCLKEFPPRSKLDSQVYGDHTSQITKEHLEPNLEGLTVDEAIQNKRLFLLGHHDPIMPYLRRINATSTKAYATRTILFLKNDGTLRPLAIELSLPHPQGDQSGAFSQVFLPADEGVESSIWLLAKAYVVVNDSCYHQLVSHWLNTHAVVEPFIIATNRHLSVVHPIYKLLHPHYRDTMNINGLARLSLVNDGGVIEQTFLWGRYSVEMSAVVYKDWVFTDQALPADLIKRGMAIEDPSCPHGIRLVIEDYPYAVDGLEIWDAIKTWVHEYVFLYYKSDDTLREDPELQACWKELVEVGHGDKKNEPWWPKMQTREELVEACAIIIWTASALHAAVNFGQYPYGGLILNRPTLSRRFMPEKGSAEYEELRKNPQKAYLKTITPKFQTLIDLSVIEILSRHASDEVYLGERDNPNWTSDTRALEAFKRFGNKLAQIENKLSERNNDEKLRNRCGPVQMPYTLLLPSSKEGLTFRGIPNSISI
# Procedure: The anti-inflammatory effect of the synthesized compounds was initially evaluated in vitro, via their ability to inhibit soybean lipoxygenase (LOX-3).
# Lipoxygenase activity was determined using soybean lipoxygenase (250 U/mL) and sodium linoleate (100 μM) as substrate, in Tris–HCl buffer pH 9.0. The test compounds dissolved in methanol were added and the reaction was monitored for 5 min at 28 °C, recording absorbance at 234 nm.
# [2] = system: carrageenan-induced mouse paw edema; experiment: Carrageenan-induced mouse paw edema; type: in vivo; settings: for inhibition in vivo at 300 µmol/kg: Mus musculus, ip, 0.30 mmol/kg i.p., 3.5 h after carrageenan, mean of 6 animals, read-out: % Edema Reduction; for improvement in anti-inflammatory activity: compared to parent flufenamic acid (g) or flufenamol (h)
# Procedure: In vivo anti-inflammatory activity of the synthesized compounds was evaluated as mouse paw edema reduction. Paw edema was induced by subcutaneous injection of a 2% carrageenan suspension in the right paw of mice, the left serving as the control. The activity of the tested compounds (at 0.30 mmol/kg of body weight, i.p.), expressed as % reduction in paw edema 3.5 h after carrageenan injection, is shown in Table 2. […] Moreover, compounds 9 and 10 (antioxidant derivatives of mefenamic acid) caused a 1.5–2-fold improvement in edema reduction compared to that of the parent mefenamic acid (i).
# For the in vivo anti-inflammatory activity, Wistar male rats or C57BL/6 mice were injected with 0.025 mL carrageenan (2% w/v solution in saline) i.d. into the right hind paw, with the left paw serving as the control. The test compounds (300 μmol/kg) were given, i.p., after the carrageenan injection, and 3.5 h later, the produced edema was estimated as the paw weight increase. Results are expressed as percentage of the reduction in paw edema and are the means for six animals (per compound).
# [3] = system: experimentally induced hyperlipidemic mouse model; experiment: Tyloxapol (Triton WR 1339)-induced hyperlipidemia; type: in vivo, mice; settings: 84 μmol/kg i.p.; 24 h after tyloxapol
# Procedure: Acute hyperlipidemia was achieved, i.p., by the administration of tyloxapol (Triton WR 1339). The antihyperlipidemic effect of the tested compounds was evaluated as the decrease in total cholesterol (TC) and triglyceride (TG) levels in plasma 24 h after tyloxapol administration. The results are shown in Figure 4A,B. Compounds 9 and 10 reduced TC levels in plasma by 73% and 50%, respectively, and TG levels by 76% and 41%, respectively.
# An aqueous solution of Triton WR 1339 was given, i.p., to mice (400 mg/kg of body weight) and one hour later the test compounds (84 μmol/kg of body weight), dissolved in saline or saline only were administered, i.p. After 24 h, blood was taken from the aorta/heart and used for the determination of plasma total cholesterol (TC) and triglyceride (TG) levels, using commercially available kits. Levels of plasma lipids were determined in duplicate while the values presented were the mean from eight animals (per compound).
# [4] = Radical scavenging of DPPH; settings: DPPH 200 μM, after incubation for 30 min
# Procedure: The antioxidant activity of compounds 1–17 was evaluated via their ability to scavenge the free radical DPPH.
# Compounds dissolved in absolute methanol at concentrations of 25–400 μM were added to an equal volume of a methanolic solution of DPPH (final concentration 200 μM) at room temperature (22 ± 2 °C). Absorbance (517 nm) was recorded at different time intervals for 1 h and results were expressed as IC50 (μM) for DPPH after incubation for 30 min [3].
# [5] = system: carrageenan-induced mouse paw edema; settings: cited from earlier work
structure (smiles),measurement,setting,value
"CC(C)Cc1ccc(C(C)C(=O)OCc2cc(C(C)(C)C)c(O)c(C(C)(C)C)c2)cc1 (stereo not drawn) [Compound 1, 3,5-di-tert-butyl-4-hydroxybenzyl 2-(4-isobutylphenyl)propanoate]",IC50,[1],22 µM
same,inhibition in vivo at 300 µmol/kg,[2],26%
"CC(C)Cc1ccc(C(C)COC(=O)c2cc(C(C)(C)C)c(O)c(C(C)(C)C)c2)cc1 (stereo not drawn) [Compound 2, 2-(4-isobutylphenyl)propyl 3,5-di-tert-butyl-4-hydroxybenzoate]",inhibition in vivo at 300 µmol/kg,[2],56%
"COc1ccc2cc(C(C)COC(=O)c3cc(C(C)(C)C)c(O)c(C(C)(C)C)c3)ccc2c1 (stereo not drawn) [Compound 4, 2-(6-methoxynaphthalen-2-yl)propyl 3,5-di-tert-butyl-4-hydroxybenzoate]",melting point,,154.1 to 155 °C
same,IC50,[1],64 µM
same,inhibition in vivo at 300 µmol/kg,[2],49%
"Cc1c(Cl)cccc1Nc1ccccc1C(=O)OCc1cc(C(C)(C)C)c(O)c(C(C)(C)C)c1 [Compound 5, 3,5-di-tert-butyl-4-hydroxybenzyl 2-((3-chloro-2-methylphenyl)amino)benzoate]",IC50,[1],> 200 µM
same,inhibition in vivo at 300 µmol/kg,[2],55%
"Cc1c(Cl)cccc1Nc1ccccc1COC(=O)c1cc(C(C)(C)C)c(O)c(C(C)(C)C)c1 [Compound 6, 2-((3-chloro-2-methylphenyl)amino)benzyl 3,5-di-tert-butyl-4-hydroxybenzoate]",melting point,,141.1 to 141.8 °C
same,IC50,[1],> 150 µM
same,inhibition in vivo at 300 µmol/kg,[2],67%
"CC(C)(C)c1cc(COC(=O)c2ccccc2Nc2cccc(C(F)(F)F)c2)cc(C(C)(C)C)c1O [Compound 7, 3,5-di-tert-butyl-4-hydroxybenzyl 2-((3-(trifluoromethyl)phenyl)amino)benzoate]",melting point,,87.2 to 88 °C
same,IC50,[1],152 µM
same,inhibition in vivo at 300 µmol/kg,[2],38%
same,improvement in anti-inflammatory activity,[2],2–2.5 fold
"CC(C)(C)c1cc(C(=O)OCc2ccccc2Nc2cccc(C(F)(F)F)c2)cc(C(C)(C)C)c1O [Compound 8, 2-((3-(trifluoromethyl)phenyl)amino)benzyl 3,5-di-tert-butyl-4-hydroxybenzoate]",melting point,,119.9 to 120.5 °C
same,IC50,[1],150 µM
same,inhibition in vivo at 300 µmol/kg,[2],48%
same,improvement in anti-inflammatory activity,[2],2–2.5 fold
"Cc1cccc(Nc2ccccc2COC(=O)c2cc(C(C)(C)C)c(O)c(C(C)(C)C)c2)c1C [Compound 10, 2-((2,3-dimethylphenyl)amino)benzyl 3,5-di-tert-butyl-4-hydroxybenzoate]",melting point,,136.3 to 136.9 °C
same,IC50,[1],15 µM
same,reduction of total cholesterol (TC) levels in plasma,[3],50%
same,reduction of triglyceride (TG) levels in plasma,[3],41%
same,inhibition in vivo at 300 µmol/kg,[2],54%
same,improvement in edema reduction,[2]; compared to parent mefenamic acid (i),1.5–2 fold
"CC(C)(C)c1cc(COC(=O)Cc2ccccc2Nc2c(Cl)cccc2Cl)cc(C(C)(C)C)c1O [Compound 11, 3,5-di-tert-butyl-4-hydroxybenzyl 2-(2-((2,6-dichlorophenyl)amino)phenyl)acetate]",melting point,,149 to 149.7 °C
same,IC50,[1],142 µM
same,inhibition in vivo at 300 µmol/kg,[2],40%
"CC(C)(C)c1cc(C(=O)OCCc2ccccc2Nc2c(Cl)cccc2Cl)cc(C(C)(C)C)c1O [Compound 12, 2-((2,6-dichlorophenyl)amino)phenethyl 3,5-di-tert-butyl-4-hydroxybenzoate]",melting point,,147.8 to 149.2 °C
same,IC50,[1],122 µM
same,inhibition in vivo at 300 µmol/kg,[2],54%
"COc1ccc2c(c1)c(CC(=O)OCc1cc(C(C)(C)C)c(O)c(C(C)(C)C)c1)c(C)n2C(=O)c1ccc(Cl)cc1 [Compound 13, 3,5-di-tert-butyl-4-hydroxybenzyl 2-(1-(4-chlorobenzoyl)-5-methoxy-2-methyl-1H-indol-3-yl)acetate]",melting point,,149.3 to 149.9 °C
same,IC50,[1],68 µM
same,inhibition in vivo at 300 µmol/kg,[2],39%
"Cc1c(C)c2c(c(C)c1O)CCC(C)(C(=O)OCC(C)c1ccc(CC(C)C)cc1)O2 (stereo not drawn) [Compound 14, 2-(4-isobutylphenyl)propyl6-hydroxy-2,5,7,8-tetramethylchromane-2-carboxylate]",melting point,,69.2 to 70 °C
same,IC50,[1],> 150 µM
same,IC50,[4],34 µM
same,inhibition in vivo at 300 µmol/kg,[2],42%
"COc1ccc2cc(C(C)COC(=O)C3(C)CCc4c(C)c(O)c(C)c(C)c4O3)ccc2c1 (stereo not drawn) [Compound 15, 2-(6-methoxynaphthalen-2-yl)propyl 6-hydroxy-2,5,7,8-tetramethylchromane-2-carboxylate]",IC50,[1],9 µM
same,reduction of total cholesterol (TC) levels in plasma,[3],42%
same,reduction of triglyceride (TG) levels in plasma,[3],65%
same,IC50,[4],147 µM
same,inhibition in vivo at 300 µmol/kg,[2],55%
"Cc1c(Cl)cccc1Nc1ccccc1COC(=O)C1(C)CCc2c(C)c(O)c(C)c(C)c2O1 (stereo not drawn) [Compound 16, 2-((3-chloro-2-methylphenyl)amino)benzyl 6-hydroxy-2,5,7,8-tetramethylchromane-2-carboxylate]",melting point,,150.4 to 151.3 °C
same,IC50,[1],54 µM
same,reduction of total cholesterol (TC) levels in plasma,[3],55%
same,reduction of triglyceride (TG) levels in plasma,[3],78%
same,IC50,[4],47 µM
same,inhibition in vivo at 300 µmol/kg,[2],54%
"COc1ccc2c(c1)c(CCOC(=O)C1(C)CCc3c(C)c(O)c(C)c(C)c3O1)c(C)n2C(=O)c1ccc(Cl)cc1 (stereo not drawn) [Compound 17, 2-(1-(4-chlorobenzoyl)-5-methoxy-2-methyl-1H-indol-3-yl)ethyl 6-hydroxy-2,5,7,8-tetramethylchromane-2-carboxylate]",IC50,[1],> 150 µM
same,IC50,[4],76 µM
same,inhibition in vivo at 300 µmol/kg,[2],45%
"CC(C)Cc1ccc(C(C)C(=O)O)cc1 (stereo not drawn) [a, Ibuprofen]",% Edema Reduction,[5]; 0.30 mmol/kg i.p.,57*** [5] %
"CC(C)Cc1ccc(C(C)CO)cc1 (stereo not drawn) [b, Ibuprofenol, reference compound]",inhibition in vivo at 300 µmol/kg,[2],66%
"COc1ccc2cc(C(C)CO)ccc2c1 (stereo not drawn) [d, 2-(6-methoxynaphthalen-2-yl)propan-1-ol, reference compound]",IC50,[1],29 µM
same,inhibition in vivo at 300 µmol/kg,[2],40%
"Cc1c(Cl)cccc1Nc1ccccc1CO [f, (2-((3-chloro-2-methylphenyl)amino)phenyl)methanol]",melting point,,48.4 to 48.7 °C
same,inhibition in vivo at 300 µmol/kg,[2],43%
"O=C(O)c1ccccc1Nc1cccc(C(F)(F)F)c1 [g, Flufenamic acid]",% Edema Reduction,[5]; 0.15 mmol/kg i.p.,19**^a [17] %
"OCc1ccccc1Nc1cccc(C(F)(F)F)c1 [h, (2-((3-(trifluoromethyl)phenyl)amino)phenyl)methanol, reference compound]",inhibition in vivo at 300 µmol/kg,[2],22%
"Cc1cccc(Nc2ccccc2CO)c1C [j, (2-((2,3-dimethylphenyl)amino)phenyl)methanol, reference compound]",inhibition in vivo at 300 µmol/kg,[2],42%
"O=C(O)Cc1ccccc1Nc1c(Cl)cccc1Cl [k, Diclofenac]",% Edema Reduction,[5]; 0.30 mmol/kg i.p.,61*** [5] %
"COc1ccc2c(c1)c(CC(=O)O)c(C)n2C(=O)c1ccc(Cl)cc1 [m, Indomethacin]",% Edema Reduction,[5]; 0.30 mmol/kg i.p.,55*** [5] %
